From US20240408022A1, “DESIDUSTAT PARTICLES AND COMPOSITIONS THEREOF” (ZYDUS LIFESCIENCES LIMITED, priority 2021, published 2024) come the findings set out here.

This data set can be described thus: Particle size and specific surface area analysis (Malvern Mastersizer 3000, laser diffraction). As to conditions: for D10 / D50 / D90: particle size of desidustat used in the composition. The format is physicochemical. On the procedure: (i) Particle Size and Specific Surface Area Analysis Method:
Particle size was determined by Malvern Mastersizer 3000 with Hydro MV accessory, laser diffraction particle size analyser. About 100 mg of drug substance weighed and transferred into 100 mL of glass beaker. About 10-15 drops of dispersant sunflower oil:cyclohexane (80:20) were added and the lumps were broken with glass rod for about 3 to 5 min. 20 mL of dispersant was added into the same glass beaker and the content were shaken for 3-5 minutes with glass rod to mix well. Background measurement using dispersant was performed. When the blank correction/background measurement was over, sample slurry (with continuous manual shaking) was added in the sampler at 1500 rpm to get the target obscuration value between 10% and 30% and remained constant. Then the histogram was recorded.

Where [1] appears, read: Example 1, after further multi-milling using 0.2 mm sieve.

`O=C(O)CNC(=O)c1c(O)c2ccccc2n(OCC2CC2)c1=O` [Unmilled desidustat] registered a D10 of 2.16 μm, a D50 of 98.3 μm and a D90 of 366 μm.

Compound `O=C(O)CNC(=O)c1c(O)c2ccccc2n(OCC2CC2)c1=O` [Milled desidustat] registered a D10 of 0.80 μm, a D50 of 22.7 μm and a D90 of 130.0 μm.

In the case of `O=C(O)CNC(=O)c1c(O)c2ccccc2n(OCC2CC2)c1=O` [desidustat, 2-(1-(Cyclopropylmethoxy)-4-hydroxy-2-oxo-1,2-dihydroquinoline-3-carboxamido) acetic acid], under setting [1], the “Particle size distribution D10” value stood at 0.80 μm, the “Particle size distribution D50” value was 22.7 μm, the “Particle size distribution D90” value is given as 130 μm and the Specific surface area amounted to 2 m^2/g. Where the note is “Example 1, after multi-milling using 5 mm sieve and drying, before 0.2 mm sieve”, the “Particle size D90” value is on record as 366 μm.
